Data reported in patent US10829520B2, “Beta-hairpin peptidomimetics” (POLYPHOR AG, priority 2015, dated 2020).
Where a SMILES comes first, the peptide text is derived from it. Bridges are numbered along the chain shown (N, C = ends). [ ]: non-standard residue; d: D form. Tle = CC(C)(C)[C@H](N)C(=O)O; dDab = NCC[C@@H](N)C(=O)O; Nle = CCCC[C@H](N)C(=O)O; Orn = NCCC[C@H](N)C(=O)O; Dab = NCC[C@H](N)C(=O)O; Dap = NC[C@H](N)C(=O)O

Legend:
Type in all cases: cell-based
[1] = test system: Pseudomonas aeruginosa ATCC 27853; details: ATCC 27853
Outline: (§1)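 Using the CLSI reference method, each strain at approx. 10^6 CFU/mL was exposed to serially diluted peptide in MH-II broth with 0.002% P-80. After 18-20 h at 35° C, the lowest concentration showing no visible growth gave the MIC.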

[2] = test system: Klebsiella pneumoniae SSI #3010; details: SSI #3010
Outline: as §1

[3] = test system: Klebsiella pneumoniae 968733; details: 968733
[4] = test system: Acinetobacter baumannii 872842; details: 872842
[5] = test system: Escherichia coli ATCC 25922; details: ATCC 25922
Outline: as §1

Escherichia coli 926415 = details: 926415
[6] = test system: Acinetobacter baumannii DSM 30008; details: DSM 30008
Outline: as §1

[7] = test system: human red blood cells (hRBC); assay: Hemolysis of human red blood cells; details: red cells of human, 1 h
Outline: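 Hemolysis was read as supernatant absorbance at 540 nm and expressed as a percentage of Triton X-100 (2.5%) lysis. Washed human red cells (20% v/v) had been exposed to each peptide at 100 μg/mL for 1 h at 37° C.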

Row | SMILES | Pseudomonas aeruginosa ATCC 27853 MIC [1] [µg/mL] | Klebsiella pneumoniae SSI #3010 MIC [2] [µg/mL] | Klebsiella pneumoniae 968733 MIC [3] [µg/mL] | Acinetobacter baumannii 872842 MIC [4] [µg/mL] | Escherichia coli ATCC 25922 MIC [5] [µg/mL] | Escherichia coli 926415 MIC (Escherichia coli 926415) [µg/mL] | Acinetobacter baumannii DSM 30008 MIC [6] [µg/mL] | Hemolysis at 100 μg/mL ([7]; 100 μg/mL) [%] | Hemolysis at 100 μg/mL [7]; 100 [%]
1 | CCCC[C@@H]1NC(=O)[C@@H]2CCCN2C(=O)[C@H]2CCCN2C(=O)[C@H](CO)NC(=O)[C@H](C)NC(=O)[C@H](C(C)(C)C)NC(=O)[C@@H](NC(=O)[C@H](Cc2c[nH]c3ccccc23)NC(C)=O)CSSC[C@@H](C(=O)N[C@@H](CCN)C(=O)N[C@@H](CN)C(=O)N[C@H]2CCNC(=O)[C@H]([C@@H](C)O)NC(=O)[C@H](CCN)NC(=O)[C@H](CCN)NC(=O)[C@H](CC(C)C)NC(=O)[C@@H](Cc3ccccc3)NC(=O)[C@H](CCN)NC2=O)NC(=O)[C@H](Cc2ccc(O)cc2)NC(=O)[C@H](CO)NC1=O [Ex. 50] (Ac-WC[Tle]AS[dP]P[Nle]SYC[Dab][Dap][Dab][Dab][dF]L[Dab][Dab]T; disulfide 2-11; lactam 14-C) | 1 | 0.25 | 2 | 0.5 | 0.25 | 0.5 | 0.25 | 1 | –
2 | CCCC[C@@H]1NC(=O)[C@@H]2CCCN2C(=O)[C@H]2CCCN2C(=O)[C@H](CO)NC(=O)[C@H](C)NC(=O)[C@H](C(C)(C)C)NC(=O)[C@@H](NC(=O)[C@H](Cc2ccccc2)NC(C)=O)CSSC[C@@H](C(=O)N[C@@H](CCCN)C(=O)N[C@@H](CCN)C(=O)N[C@H]2CCNC(=O)[C@H]([C@@H](C)O)NC(=O)[C@H](CCN)NC(=O)[C@H](CCN)NC(=O)[C@H](CC(C)C)NC(=O)[C@@H](Cc3ccccc3)NC(=O)[C@H](CCN)NC2=O)NC(=O)[C@H](Cc2ccc(O)cc2)NC(=O)[C@H](CO)NC1=O [Ex. 51] (Ac-FC[Tle]AS[dP]P[Nle]SYC[Orn][Dab][Dab][Dab][dF]L[Dab][Dab]T; disulfide 2-11; lactam 14-C) | 1 | 0.5 | 4 | 4 | 0.25 | 2 | 0.5 | <1 | –
3 | CCCC[C@@H]1NC(=O)[C@@H]2CCCN2C(=O)[C@H]2CCCN2C(=O)[C@H](C(C)C)NC(=O)[C@H](C)NC(=O)[C@H](Cc2ccc(O)cc2)NC(=O)[C@@H](NC(=O)[C@H](Cc2c[nH]c3ccccc23)NC(C)=O)CSSC[C@@H](C(=O)N[C@@H](CCCN)C(=O)N[C@@H](CCN)C(=O)N[C@H]2CCNC(=O)[C@H]([C@@H](C)O)NC(=O)[C@H](CCN)NC(=O)[C@H](CCN)NC(=O)[C@H](CC(C)C)NC(=O)[C@@H](Cc3ccccc3)NC(=O)[C@H](CCN)NC2=O)NC(=O)[C@H](Cc2ccc(O)cc2)NC(=O)[C@H](CO)NC1=O [Ex. 52] (Ac-WCYAV[dP]P[Nle]SYC[Orn][Dab][Dab][Dab][dF]L[Dab][Dab]T; disulfide 2-11; lactam 14-C) | 4 | 0.5 | 2 | 4 | 0.5 | 3 | 0.5 | 2 | –
4 | CCCC[C@@H]1NC(=O)[C@@H]2CCCN2C(=O)[C@@H](CCN)NC(=O)[C@H](CO)NC(=O)[C@H](C)NC(=O)[C@H](C(C)(C)C)NC(=O)[C@@H](NC(=O)[C@H](Cc2c[nH]c3ccccc23)NC(C)=O)CSSC[C@@H](C(=O)N[C@@H](CCCN)C(=O)N[C@@H](CCN)C(=O)N[C@H]2CCNC(=O)[C@H]([C@@H](C)O)NC(=O)[C@H](CCN)NC(=O)[C@H](CCN)NC(=O)[C@H](CC(C)C)NC(=O)[C@@H](Cc3ccccc3)NC(=O)[C@H](CCN)NC2=O)NC(=O)[C@H](Cc2ccc(O)cc2)NC(=O)[C@H](CO)NC1=O [Ex. 53] (Ac-WC[Tle]AS[dDab]P[Nle]SYC[Orn][Dab][Dab][Dab][dF]L[Dab][Dab]T; disulfide 2-11; lactam 14-C) | 2 | 0.5 | 8 | 2 | 0.25 | 1 | 0.25 | 1 | –
5 | CCCC[C@@H]1NC(=O)[C@@H]2CCCN2C(=O)[C@H]2CCCN2C(=O)[C@H](CO)NC(=O)[C@H](C)NC(=O)[C@H](C(C)(C)C)NC(=O)[C@@H](NC(=O)[C@H](Cc2c[nH]c3ccccc23)NC(C)=O)CSSC[C@@H](C(=O)N[C@@H](CCCN)C(=O)N[C@@H](CCN)C(=O)N[C@H]2CCNC(=O)[C@H]([C@@H](C)O)NC(=O)[C@H](CCN)NC(=O)[C@H](CCN)NC(=O)[C@H](CC(C)C)NC(=O)[C@@H](CC(C)C)NC(=O)[C@H](CCN)NC2=O)NC(=O)[C@H](Cc2ccc(O)cc2)NC(=O)[C@H](CO)NC1=O [Ex. 54] (Ac-WC[Tle]AS[dP]P[Nle]SYC[Orn][Dab][Dab][Dab][dL]L[Dab][Dab]T; disulfide 2-11; lactam 14-C) | 2 | 0.5 | 4 | 1 | 0.25 | 1 | 0.5 | 1 | –
6 | CCCC[C@@H]1NC(=O)[C@@H]2CCCN2C(=O)[C@H]2CCCN2C(=O)[C@H](CO)NC(=O)[C@H](C)NC(=O)[C@H](C(C)(C)C)NC(=O)[C@H](CCN)NC(=O)[C@H](Cc2c[nH]c3ccccc23)NC(=O)[C@@H](NC(C)=O)CSSC[C@@H](C(=O)N[C@@H](CCN)C(=O)N[C@H]2CCNC(=O)[C@H]([C@@H](C)O)NC(=O)[C@H](CCN)NC(=O)[C@H](CCN)NC(=O)[C@H](CC(C)C)NC(=O)[C@@H](Cc3ccccc3)NC(=O)[C@H](CCN)NC2=O)NC(=O)[C@H](CCCN)NC(=O)[C@H](CCN)NC(=O)[C@H](Cc2ccc(O)cc2)NC(=O)[C@H](CO)NC1=O [Ex. 57] (Ac-CW[Dab][Tle]AS[dP]P[Nle]SY[Dab][Orn]C[Dab][Dab][Dab][dF]L[Dab][Dab]T; disulfide 1-14; lactam 16-C) | 0.5 | 0.25 | 8 | 4 | 0.25 | 1 | 1 | <1 | –
7 | CCCC[C@@H]1NC(=O)[C@@H]2CCCN2C(=O)[C@H]2CCCN2C(=O)[C@H](CO)NC(=O)[C@H](C)NC(=O)[C@H](C(C)(C)C)NC(=O)[C@H](CCN)NC(=O)[C@H](Cc2c[nH]c3ccccc23)NC(=O)[C@@H](NC(C)=O)CCC(=O)NCC[C@@H](C(=O)N[C@@H](CCN)C(=O)N[C@H]2CCNC(=O)[C@H]([C@@H](C)O)NC(=O)[C@H](CCN)NC(=O)[C@H](CCN)NC(=O)[C@H](CC(C)C)NC(=O)[C@@H](Cc3ccccc3)NC(=O)[C@H](CCN)NC2=O)NC(=O)[C@H](CCCN)NC(=O)[C@H](CCN)NC(=O)[C@H](Cc2ccc(O)cc2)NC(=O)[C@H](CO)NC1=O [Ex. 58] (Ac-EW[Dab][Tle]AS[dP]P[Nle]SY[Dab][Orn][Dab][Dab][Dab][Dab][dF]L[Dab][Dab]T; lactam 1-14, 16-C) | 0.5 | 0.125 | 2 | 0.5 | 0.125 | 0.25 | 0.25 | – | <1
